US20120030841A1, “Isoxazoline compounds for combating invertebrate pests” (BASF SE, priority 2009, published 2012)

Experiments:
Assay type in all cases: in vivo
[1] = system: Mediterranean fruitfly (Ceratitis capitata); experiment: Mediterranean fruitfly egg/larval test on insect diet, microtiter plates; details: 120 h, sprayed onto insect diet, egg and larval mortality, 5 days, read-out: mortality in comparison with untreated controls
Experimental: (§1) The test solution was prepared the day it was used and in general at concentrations of […] (wt/vol).
For evaluating control of Mediterranean fruitfly (Ceratitis capitata) the test unit consisted of microtiter plates containing an insect diet and 50-80 C. capitata eggs.
(§2) The compounds were formulated using a solution containing 75% v/v water and 25% v/v DMSO. Different concentrations of formulated compounds were sprayed onto the insect diet at 5 μl, using a custom built micro atomizer, at two replications. After application, microtiter plates were incubated at about 28±1° C. and about 80±5% relative humidity for 5 days. Egg and larval mortality was then visually assessed.

[2] = system: boll weevil (Anthonomus grandis); experiment: Boll weevil egg/larval test on insect diet, 24-well plates; details: 120 h, sprayed onto insect diet, egg and larval mortality, 5 days, read-out: mortality in comparison with untreated controls
Experimental: as §1
For evaluating control of boll weevil (Anthonomus grandis) the test unit consisted of 24-well-microtiter plates containing an insect diet and 20-30 A. grandis eggs.
The compounds were formulated using a solution containing 75% v/v water and 25% v/v DMSO. Different concentrations of formulated compounds were sprayed onto the insect diet at 20 μl, using a custom built micro atomizer, at two replications.
After application, microtiter plates were incubated at about 23±1° C. and about 50±5% relative humidity for 5 days. Egg and larval mortality was then visually assessed.

[3] = system: southern armyworm (Spodoptera eridania); experiment: Southern armyworm foliar spray test on lima bean plants; details: 96 h, armyworm larvae, 4 days after treatment, read-out: mortality in comparison with untreated controls
Experimental: as §1
The active compounds were formulated in cyclohexanone as a 10,000 ppm solution supplied in tubes. The tubes were inserted into an automated electrostatic sprayer equipped with an atomizing nozzle and they served as stock solutions for which lower dilutions were made in 50% acetone:50% water (v/v). A nonionic surfactant (Kinetic®) was included in the solution at a volume of 0.01% (v/v).
Lima bean plants (variety Sieva) were grown 2 plants to a pot and selected for treatment at the 1St true leaf stage. Test solutions were sprayed onto the foliage by an automated electrostatic plant sprayer equipped with an atomizing spray nozzle. The plants were dried in the sprayer fume hood and then removed from the sprayer. Each pot was placed into perforated plastic bags with a zip closure. About 10 to 11 armyworm larvae were placed into the bag and the bags zipped closed. Test plants were maintained in a growth room at about 25° C. and about 20-40% relative humidity for 4 days, avoiding direct exposure to fluorescent light (24 hour photoperiod) to prevent trapping of heat inside the bags. Mortality and reduced feeding were assessed 4 days after treatment, compared to untreated control plants.

[4] = system: tobacco budworm (Heliothis virescens); experiment: Tobacco budworm egg/larval test on insect diet, 96-well plates; details: 120 h, sprayed onto insect diet, egg and larval mortality, 5 days, read-out: mortality in comparison with untreated controls
Experimental: as §1
as §2, with “For evaluating control of tobacco budworm (Heliothis virescens) the test unit consisted of 96-well-microtiter plates containing an insect diet and 15-25 H. virescens eggs. The” for “The”, “at 10” for “at 5”

[5] = system: green peach aphid (Myzus persicae); experiment: Green peach aphid systemic test, artificial diet under membrane, 96-well plates; details: 72 h, adult aphids on treated artificial diet, 3 days, read-out: mortality in comparison with untreated controls
Experimental: as §1
For evaluating control of green peach aphid (Myzus persicae) through systemic means the test unit consisted of 96-well-microtiter plates containing liquid artificial diet under an artificial membrane.
The compounds were formulated using a solution containing 75% v/v water and 25% v/v DMSO. Different concentrations of formulated compounds were pipetted into the aphid diet, using a custom built pipetter, at two replications.
After application, 5-8 adult aphids were placed on the artificial membrane inside the microtiter plate wells. The aphids were then allowed to suck on the treated aphid diet and incubated at about 23±1° C. and about 50±5% relative humidity for 3 days. Aphid mortality and fecundity was then visually assessed.

COC(=O)c1cccc2c(C3=NOC(c4cc(Cl)cc(Cl)c4)(C(F)(F)F)C3)ccnc12 (centres unmarked) [Compound 1-3, 4-[5-(3,5-dichloro-phenyl)-5-trifluoromethyl-4,5-di-hydroisoxazol-3-yl]-quinoline-8-carboxylic acid methyl ester]
> 75%: mortality at 2500 ppm [1] | mortality at 2500 ppm [2]

N#Cc1cccc2c(C3=NOC(c4cc(Cl)cc(Cl)c4)(C(F)(F)F)C3)ccnc12 (centres unmarked) [Compound 1-2, 4-[5-(3,5-dichloro-phenyl)-5-trifluoromethyl-4,5-di-hydroisoxazol-3-yl]-quinoline-8-carbonitrile]
> 75%: mortality at 2500 ppm [1] | mortality at 300 ppm [3] | mortality at 2500 ppm [2] | mortality at 2500 ppm [4]

FC(F)(F)C1(c2cc(Cl)cc(Cl)c2)CC(c2ccnc3c(Br)cccc23)=NO1 (centres unmarked) [Compound 1-1, 8-bromo-4-[5-(3,5-dichloro-phenyl)-5-trifluoromethyl-4,5-di-hydroisoxazol-3-yl]-quinoline]
> 75%: mortality at 2500 ppm [5] | mortality at 2500 ppm [1] | mortality at 300 ppm [3] | mortality at 2500 ppm [2] | mortality at 2500 ppm [4]
